Columns and labels:
Assay type in all cases: biochemical
cathepsin L = target: T1, cathepsin L (Homo sapiens, UniProt P07711); assay: Cathepsin L enzyme inhibition in vitro (kinetic fluorescence assay); settings: cathepsin L isolated from human liver vs calpain I
T1 construct: cathepsin L—isolated from human liver (Calbiochem #219402); purchased Calbiochem 219402; host or cells: human liver (tissue-derived)
In short: (§1)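 Cathepsin B (0.25 nM, human liver) with 100 μM Z-Phe-Arg-AMC; L (1 nM, human liver) with 2 μM Z-Phe-Arg-AMC; S (0.5 nM, recombinant) with 20 μM Z-Val-Val-Arg-AMC. pH 6.0 MES buffer, 2.5 mM L-cysteine, room temperature. Kinetic fluorescence (ex 390/em 460 nm); apparent Ki from IC50 by Cheng-Prusoff.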

cathepsin K = target: T2, cathepsin K (Homo sapiens, UniProt P43235); assay: Cathepsin K enzyme inhibition in vitro (kinetic fluorescence assay); settings: cathepsin K activated from recombinant human procathepsin K vs calpain I
T2 construct: purchased Calbiochem 342001; host or cells: E. coli
T2 sequence (P43235 115-329): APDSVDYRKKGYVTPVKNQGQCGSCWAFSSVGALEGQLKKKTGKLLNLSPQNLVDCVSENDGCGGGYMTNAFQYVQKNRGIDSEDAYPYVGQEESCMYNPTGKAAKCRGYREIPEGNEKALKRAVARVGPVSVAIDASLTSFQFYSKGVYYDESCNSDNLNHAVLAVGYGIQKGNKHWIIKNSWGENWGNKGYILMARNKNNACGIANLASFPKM

cathepsin S = target: T3, cathepsin S (Homo sapiens, UniProt P25774); assay: Cathepsin S enzyme inhibition in vitro (kinetic fluorescence assay); settings: recombinant human cathepsin S vs calpain I
T3 construct: purchased Calbiochem 219343; host or cells: E. coli
T3 sequence (P25774 115-331): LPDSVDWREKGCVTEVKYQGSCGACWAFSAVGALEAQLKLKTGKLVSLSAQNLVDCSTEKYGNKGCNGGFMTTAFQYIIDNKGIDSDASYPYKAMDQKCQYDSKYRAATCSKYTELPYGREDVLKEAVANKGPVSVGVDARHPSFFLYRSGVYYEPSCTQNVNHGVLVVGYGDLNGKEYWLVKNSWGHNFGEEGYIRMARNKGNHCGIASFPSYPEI
In short: as §1

cathepsin B = target: T4, cathepsin B (Homo sapiens, UniProt P07858); assay: Cathepsin B enzyme inhibition in vitro (kinetic fluorescence assay); settings: cathepsin B isolated from human liver vs calpain I
T4 construct: cathepsin B—isolated from human liver (Calbiochem #219362); purchased Calbiochem 219362; host or cells: human liver (tissue-derived)
In short: as §1

T1 sequence (P07711 114-333): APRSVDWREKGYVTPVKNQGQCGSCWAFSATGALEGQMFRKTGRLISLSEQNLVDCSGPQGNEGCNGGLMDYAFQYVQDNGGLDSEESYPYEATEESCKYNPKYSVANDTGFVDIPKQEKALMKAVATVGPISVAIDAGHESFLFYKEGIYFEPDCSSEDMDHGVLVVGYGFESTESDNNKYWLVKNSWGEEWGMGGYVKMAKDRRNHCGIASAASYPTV

## NC(=O)C(=O)C(Cc1ccccc1)NC(=O)c1cccnc1-n1ccc(-c2cccc(Cl)c2)n1 (centres unmarked) [Example 70, N-(3-Amino-1-benzyl-2,3-dioxopropyl)-2-[3-(3-chlorophenyl)-1H-pyrazol-1-yl]nicotinamide]
Cathepsin L
  Sel cat. L: Ki(cathepsin L)/Ki(calpain) ratio: ++ (++ means a Ki(cathepsin L)/Ki(calpain) ratio of ≧50)
Cathepsin K
  Sel cat. K: Ki(cathepsin K)/Ki(calpain) ratio: + (+ means 10≦Ki(cathepsin K)/Ki(calpain)<30)
Cathepsin S
  Sel cat. S: Ki(cathepsin S)/Ki(calpain) ratio: ++ (++ means a Ki(cathepsin S)/Ki(calpain) ratio of ≧100)
Cathepsin B
  Sel cat. B: Ki(cathepsin B)/Ki(calpain) ratio: + (+ means 10≦Ki(cathepsin B)/Ki(calpain)<30)

## COc1cc(Cl)ccc1-c1ccn(-c2ncccc2C(=O)NC(Cc2ccccc2)C(=O)C(N)=O)n1 (centres unmarked) [Example 139, N-[3-Amino-2,3-dioxo-1-(phenylmethyl)propyl]-2-{3-[4-chloro-2-(methyloxy)phenyl]-1H-pyrazol-1-yl}pyridine-3-carboxamide]
Cathepsin L
  Sel cat. L: Ki(cathepsin L)/Ki(calpain) ratio: ++ (++ means a Ki(cathepsin L)/Ki(calpain) ratio of ≧50)
Cathepsin K
  Sel cat. K: Ki(cathepsin K)/Ki(calpain) ratio: ++ (++ means a Ki(cathepsin K)/Ki(calpain) ratio of ≧30)
Cathepsin S
  Sel cat. S: Ki(cathepsin S)/Ki(calpain) ratio: ++ (++ means a Ki(cathepsin S)/Ki(calpain) ratio of ≧100)
Cathepsin B
  Sel cat. B: Ki(cathepsin B)/Ki(calpain) ratio: + (+ means 10≦Ki(cathepsin B)/Ki(calpain)<30)

## COc1ccc(CC(NC(=O)c2cccnc2-n2ccc(-c3ccc(Cl)cc3Cl)n2)C(=O)C(N)=O)cc1 (centres unmarked) [Example 98, N-(3-Amino-1-{[4-(methyloxy)phenyl]methyl}-2,3-dioxopropyl)-2-[3-(2,4-dichlorophenyl)-1H-pyrazol-1-yl]pyridine-3-carboxamide]
Cathepsin L
  Sel cat. L: Ki(cathepsin L)/Ki(calpain) ratio: ++ (++ means a Ki(cathepsin L)/Ki(calpain) ratio of ≧50)
Cathepsin K
  Sel cat. K: Ki(cathepsin K)/Ki(calpain) ratio: ++ (++ means a Ki(cathepsin K)/Ki(calpain) ratio of ≧30)
Cathepsin S
  Sel cat. S: Ki(cathepsin S)/Ki(calpain) ratio: ++ (++ means a Ki(cathepsin S)/Ki(calpain) ratio of ≧100)
Cathepsin B
  Sel cat. B: Ki(cathepsin B)/Ki(calpain) ratio: ++ (++ means a Ki(cathepsin B)/Ki(calpain) ratio of ≧30)

## NC(=O)C(=O)C(Cc1ccc(F)cc1)NC(=O)c1cccnc1-n1ccc(-c2ccccc2)n1 (centres unmarked) [Example 123, N-{3-Amino-1-[(4-fluorophenyl)methyl]-2,3-dioxopropyl}-2-(3-phenyl-1H-pyrazol-1-yl)pyridine-3-carboxamide]
Cathepsin L
  Sel cat. L: Ki(cathepsin L)/Ki(calpain) ratio: ++ (++ means a Ki(cathepsin L)/Ki(calpain) ratio of ≧50)
Cathepsin K
  Sel cat. K: Ki(cathepsin K)/Ki(calpain) ratio: ++ (++ means a Ki(cathepsin K)/Ki(calpain) ratio of ≧30)
Cathepsin S
  Sel cat. S: Ki(cathepsin S)/Ki(calpain) ratio: ++ (++ means a Ki(cathepsin S)/Ki(calpain) ratio of ≧100)
Cathepsin B
  Sel cat. B: Ki(cathepsin B)/Ki(calpain) ratio: ++ (++ means a Ki(cathepsin B)/Ki(calpain) ratio of ≧30)

## NC(=O)C(=O)C(Cc1ccccc1)NC(=O)c1cccnc1-n1ccc(-c2ccc(F)cc2)n1 (centres unmarked) [Example 38, N-(3-Amino-1-benzyl-2,3-dioxopropyl)-2-[3-(4-fluorophenyl)-1H-pyrazol-1-yl]nicotinamide]
Cathepsin L
  Sel cat. L: Ki(cathepsin L)/Ki(calpain) ratio: ++ (++ means a Ki(cathepsin L)/Ki(calpain) ratio of ≧50)
Cathepsin K
  Sel cat. K: Ki(cathepsin K)/Ki(calpain) ratio: + (+ means 10≦Ki(cathepsin K)/Ki(calpain)<30)
Cathepsin S
  Sel cat. S: Ki(cathepsin S)/Ki(calpain) ratio: ++ (++ means a Ki(cathepsin S)/Ki(calpain) ratio of ≧100)
Cathepsin B
  Sel cat. B: Ki(cathepsin B)/Ki(calpain) ratio: + (+ means 10≦Ki(cathepsin B)/Ki(calpain)<30)

## COc1ccc(CC(NC(=O)c2cccnc2-n2ccc(-c3ccccc3)n2)C(=O)C(N)=O)cc1 (centres unmarked) [Example 80, N-[3-Amino-1-(4-methoxybenzyl)-2,3-dioxopropyl]-2-(3-phenyl-1H-pyrazol-1-yl)nicotinamide]
Cathepsin L
  Sel cat. L: Ki(cathepsin L)/Ki(calpain) ratio: ++ (++ means a Ki(cathepsin L)/Ki(calpain) ratio of ≧50)
Cathepsin K
  Sel cat. K: Ki(cathepsin K)/Ki(calpain) ratio: + (+ means 10≦Ki(cathepsin K)/Ki(calpain)<30)
Cathepsin S
  Sel cat. S: Ki(cathepsin S)/Ki(calpain) ratio: ++ (++ means a Ki(cathepsin S)/Ki(calpain) ratio of ≧100)
Cathepsin B
  Sel cat. B: Ki(cathepsin B)/Ki(calpain) ratio: ++ (++ means a Ki(cathepsin B)/Ki(calpain) ratio of ≧30)

## NC(=O)C(=O)C(Cc1ccccc1)NC(=O)c1cccnc1-n1ccc(-c2cccc(C(F)(F)F)c2Cl)n1 (centres unmarked) [Example 155, N-[3-Amino-2,3-dioxo-1-(phenylmethyl)propyl]-2-{3-[2-chloro-3-(trifluoromethyl)phenyl]-1H-pyrazol-1-yl}pyridine-3-carboxamide]
Cathepsin L
  Sel cat. L: Ki(cathepsin L)/Ki(calpain) ratio: ++ (++ means a Ki(cathepsin L)/Ki(calpain) ratio of ≧50)
Cathepsin K
  Sel cat. K: Ki(cathepsin K)/Ki(calpain) ratio: ++ (++ means a Ki(cathepsin K)/Ki(calpain) ratio of ≧30)
Cathepsin S
  Sel cat. S: Ki(cathepsin S)/Ki(calpain) ratio: ++ (++ means a Ki(cathepsin S)/Ki(calpain) ratio of ≧100)
Cathepsin B
  Sel cat. B: Ki(cathepsin B)/Ki(calpain) ratio: ++ (++ means a Ki(cathepsin B)/Ki(calpain) ratio of ≧30)

## CS(=O)(=O)Nc1cnc(-n2ccc(-c3ccccc3)n2)c(C(=O)NC(Cc2ccccc2)C(=O)C(N)=O)c1 (centres unmarked) [Example 158, N-[3-Amino-2,3-dioxo-1-(phenylmethyl)propyl]-5-[(methylsulfonyl)amino]-2-(3-phenyl-1H-pyrazol-1-yl)pyridine-3-carboxamide]
Cathepsin L
  Sel cat. L: Ki(cathepsin L)/Ki(calpain) ratio: ++ (++ means a Ki(cathepsin L)/Ki(calpain) ratio of ≧50)
Cathepsin K
  Sel cat. K: Ki(cathepsin K)/Ki(calpain) ratio: ++ (++ means a Ki(cathepsin K)/Ki(calpain) ratio of ≧30)
Cathepsin S
  Sel cat. S: Ki(cathepsin S)/Ki(calpain) ratio: ++ (++ means a Ki(cathepsin S)/Ki(calpain) ratio of ≧100)
Cathepsin B
  Sel cat. B: Ki(cathepsin B)/Ki(calpain) ratio: ++ (++ means a Ki(cathepsin B)/Ki(calpain) ratio of ≧30)

## NC(=O)C(=O)C(Cc1ccccc1)NC(=O)c1cccnc1-n1ccc(-c2ccc(Cl)s2)n1 (centres unmarked) [Example 103, N-[3-Amino-2,3-dioxo-1-(phenylmethyl)propyl]-2-[3-(5-chloro-2-thienyl)-1H-pyrazol-1-yl]pyridine-3-carboxamide]
Cathepsin L
  Sel cat. L: Ki(cathepsin L)/Ki(calpain) ratio: ++ (++ means a Ki(cathepsin L)/Ki(calpain) ratio of ≧50)
Cathepsin K
  Sel cat. K: Ki(cathepsin K)/Ki(calpain) ratio: + (+ means 10≦Ki(cathepsin K)/Ki(calpain)<30)
Cathepsin S
  Sel cat. S: Ki(cathepsin S)/Ki(calpain) ratio: ++ (++ means a Ki(cathepsin S)/Ki(calpain) ratio of ≧100)
Cathepsin B
  Sel cat. B: Ki(cathepsin B)/Ki(calpain) ratio: + (+ means 10≦Ki(cathepsin B)/Ki(calpain)<30)

## NC(=O)C(=O)C(Cc1ccccc1)NC(=O)c1cccnc1-n1ccc(C23CC4CC(CC(C4)C2)C3)n1 (centres unmarked) [Example 193, N-[3-Amino-2,3-dioxo-1-(phenylmethyl)propyl]-2-(3-tricyclo[3.3.1.1^3,7]dec-1-yl-1H-pyrazol-1-yl)pyridine-3-carboxamide]
Cathepsin L
  Sel cat. L: Ki(cathepsin L)/Ki(calpain) ratio: ++ (++ means a Ki(cathepsin L)/Ki(calpain) ratio of ≧50)
Cathepsin K
  Sel cat. K: Ki(cathepsin K)/Ki(calpain) ratio: ++ (++ means a Ki(cathepsin K)/Ki(calpain) ratio of ≧30)
Cathepsin S
  Sel cat. S: Ki(cathepsin S)/Ki(calpain) ratio: ++ (++ means a Ki(cathepsin S)/Ki(calpain) ratio of ≧100)
Cathepsin B
  Sel cat. B: Ki(cathepsin B)/Ki(calpain) ratio: ++ (++ means a Ki(cathepsin B)/Ki(calpain) ratio of ≧30)

## Cc1c(Cl)ccc2c1-c1nn(-c3ncccc3C(=O)NC(Cc3ccccc3)C(=O)C(N)=O)cc1CO2 (centres unmarked) [Example 143, N-[3-Amino-2,3-dioxo-1-(phenylmethyl)propyl]-2-(8-chloro-9-methylchromeno[4,3-c]pyrazol-2(4H)-yl)pyridine-3-carboxamide]
Cathepsin L
  Sel cat. L: Ki(cathepsin L)/Ki(calpain) ratio: ++ (++ means a Ki(cathepsin L)/Ki(calpain) ratio of ≧50)
Cathepsin K
  Sel cat. K: Ki(cathepsin K)/Ki(calpain) ratio: ++ (++ means a Ki(cathepsin K)/Ki(calpain) ratio of ≧30)
Cathepsin S
  Sel cat. S: Ki(cathepsin S)/Ki(calpain) ratio: ++ (++ means a Ki(cathepsin S)/Ki(calpain) ratio of ≧100)
Cathepsin B
  Sel cat. B: Ki(cathepsin B)/Ki(calpain) ratio: ++ (++ means a Ki(cathepsin B)/Ki(calpain) ratio of ≧30)

## Cc1ccccc1-c1ccn(-c2ncccc2C(=O)NC(Cc2ccccc2)C(=O)C(N)=O)n1 (centres unmarked) [Example 93, N-[3-Amino-2,3-dioxo-1-(phenylmethyl)propyl]-2-[3-(2-methylphenyl)-1H-pyrazol-1-yl]pyridine-3-carboxamide]
Cathepsin L
  Sel cat. L: Ki(cathepsin L)/Ki(calpain) ratio: ++ (++ means a Ki(cathepsin L)/Ki(calpain) ratio of ≧50)
Cathepsin K
  Sel cat. K: Ki(cathepsin K)/Ki(calpain) ratio: + (+ means 10≦Ki(cathepsin K)/Ki(calpain)<30)
Cathepsin S
  Sel cat. S: Ki(cathepsin S)/Ki(calpain) ratio: ++ (++ means a Ki(cathepsin S)/Ki(calpain) ratio of ≧100)
Cathepsin B
  Sel cat. B: Ki(cathepsin B)/Ki(calpain) ratio: ++ (++ means a Ki(cathepsin B)/Ki(calpain) ratio of ≧30)

## COc1ccc(CC(NC(=O)c2cccnc2-n2ccc(-c3ccccc3F)n2)C(=O)C(N)=O)cc1 (centres unmarked) [Example 92, N-(3-Amino-1-{[4-(methyloxy)phenyl]methyl}-2,3-dioxopropyl)-2-[3-(2-fluorophenyl)-1H-pyrazol-1-yl]pyridine-3-carboxamide]
Cathepsin L
  Sel cat. L: Ki(cathepsin L)/Ki(calpain) ratio: ++ (++ means a Ki(cathepsin L)/Ki(calpain) ratio of ≧50)
Cathepsin K
  Sel cat. K: Ki(cathepsin K)/Ki(calpain) ratio: + (+ means 10≦Ki(cathepsin K)/Ki(calpain)<30)
Cathepsin S
  Sel cat. S: Ki(cathepsin S)/Ki(calpain) ratio: ++ (++ means a Ki(cathepsin S)/Ki(calpain) ratio of ≧100)
Cathepsin B
  Sel cat. B: Ki(cathepsin B)/Ki(calpain) ratio: ++ (++ means a Ki(cathepsin B)/Ki(calpain) ratio of ≧30)

## NC(=O)C(=O)C(Cc1ccccc1)NC(=O)c1cccnc1-n1ccc(-c2cccc3c2OC(F)(F)O3)n1 (centres unmarked) [Example 119, N-[3-Amino-2,3-dioxo-1-(phenylmethyl)propyl]-2-[3-(2,2-difluoro-1,3-benzodioxol-4-yl)-1H-pyrazol-1-yl]pyridine-3-carboxamide]
Cathepsin L
  Sel cat. L: Ki(cathepsin L)/Ki(calpain) ratio: ++ (++ means a Ki(cathepsin L)/Ki(calpain) ratio of ≧50)
Cathepsin K
  Sel cat. K: Ki(cathepsin K)/Ki(calpain) ratio: ++ (++ means a Ki(cathepsin K)/Ki(calpain) ratio of ≧30)
Cathepsin S
  Sel cat. S: Ki(cathepsin S)/Ki(calpain) ratio: ++ (++ means a Ki(cathepsin S)/Ki(calpain) ratio of ≧100)
Cathepsin B
  Sel cat. B: Ki(cathepsin B)/Ki(calpain) ratio: ++ (++ means a Ki(cathepsin B)/Ki(calpain) ratio of ≧30)

From US7799809B2, “Carboxamide compounds and their use as calpain inhibitors” (Abbott GmbH & Co. KG, priority 2006, dated 2010)
